In US9994551B2, “Pyridazine derivatives as RORc modulators” (Genentech, Inc., priority 2015, dated 2018):

The compounds below were run against T1, RORc ligand binding domain (Homo sapiens, UniProt P51449) (assay: In vitro RORc ligand binding assay (25-[3H]hydroxycholesterol displacement, filter binding)).
T1 construct: host or cells: E. coli
T1 sequence (P51449 269-508 limits assumed): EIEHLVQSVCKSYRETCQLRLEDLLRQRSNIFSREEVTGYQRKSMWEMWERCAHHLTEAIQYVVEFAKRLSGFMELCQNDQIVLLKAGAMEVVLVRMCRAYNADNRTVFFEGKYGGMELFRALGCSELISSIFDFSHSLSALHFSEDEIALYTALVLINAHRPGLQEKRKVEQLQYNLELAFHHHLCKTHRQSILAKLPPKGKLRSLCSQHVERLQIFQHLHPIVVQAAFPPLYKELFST

SMILES | IC50 [nM]
Cc1n[nH]c(N2CCC[C@H]([C@@]34CC[C@@H](c5cc(-c6c(F)cccc6F)nnc53)C4(C)C)C2)n1 [Compound 173, 5-(2,6-difluorophenyl)-11,11-dimethyl-1-[1-(3-methyl-1H-1,2,4-triazol-5-yl)-3-piperidyl]-3,4-diazatricyclo[6.2.1.02,7]undeca-2,4,6-triene] | 2.8
CC1(C)[C@H]2CC[C@]1(OCC(N)=O)c1nnc(-c3c(F)cccc3F)cc12 [Compound 47, 2-(((5S,8R)-3-(2,6-difluorophenyl)-9,9-dimethyl-5,6,7,8-tetrahydro-5,8-methanocinnolin-8-yl)oxy)acetamide] | 118
CNC(=O)c1nnc([C@@]23CC[C@@H](c4cc(-c5c(F)cccc5F)nnc42)C3(C)C)o1 [Compound 3, 5-((5R,8R)-3-(2,6-difluorophenyl)-9,9-dimethyl-5,6,7,8-tetrahydro-5,8-methanocinnolin-8-yl)-N-methyl-1,3,4-oxadiazole-2-carboxamide] | 283
CC1(C)[C@H]2CC[C@]1([C@H]1CCCN(c3ccc(Cl)nn3)C1)c1nnc(-c3c(F)cccc3F)cc12 [Compound 170, 1-[1-(6-chloropyridazin-3-yl)-3-piperidyl]-5-(2,6-difluorophenyl)-11,11-dimethyl-3,4-diazatricyclo[6.2.1.02,7]undeca-2,4,6-triene] | 18
CC[C@@H](O[C@@]12CC[C@@H](c3cc(-c4c(F)cccc4F)nnc31)C2(C)C)C(=O)NCCCO [Compound 105, (R)-2-(((5S,8R)-3-(2,6-difluorophenyl)-9,9-dimethyl-5,6,7,8-tetrahydro-5,8-methanocinnolin-8-yl)oxy)-N-(3-hydroxypropyl)butanamide] | 33.9
CC[C@@H](O[C@@]12CC[C@@H](c3cc(-c4c(F)cccc4F)nnc31)C2(C)C)C(=O)NC[C@H](C)O [Compound 51, (R)-2-(((5S,8R)-3-(2,6-difluorophenyl)-9,9-dimethyl-5,6,7,8-tetrahydro-5,8-methanocinnolin-8-yl)oxy)-N-((S)-2-hydroxypropyl)butanamide] | 61.5
CC1(C)[C@H]2CC[C@]1([C@H]1CCCN(c3cccc(=O)[nH]3)C1)c1nnc(-c3c(F)cccc3F)cc12 [Compound 174, 6-[3-[5-(2,6-difluorophenyl)-11,11-dimethyl-3,4-diazatricyclo[6.2.1.02,7]undeca-2,4,6-trien-1-yl]-1-piperidyl]-1H-pyridin-2-one] | 36
CC1(C)[C@H]2CC[C@]1(c1ccn3ccnc3n1)c1nnc(-c3c(F)cccc3F)cc12 [Compound 106] | 102
CC[C@@H](O[C@@]12CC[C@@H](c3cc(-c4c(F)cccc4F)nnc31)C2(C)C)c1n[nH]c(CO)n1 [Compound 39, (3-((R)-1-(((5S,8R)-3-(2,6-difluorophenyl)-9,9-dimethyl-5,6,7,8-tetrahydro-5,8-methanocinnolin-8-yl)oxy)propyl)-1H-1,2,4-triazol-5-yl)methanol] | 827
CNC(=O)c1cncc(O[C@@]23CC[C@@H](c4cc(-c5c(F)cccc5F)nnc42)C3(C)C)n1 [Compound 29, 6-(((5S,8R)-3-(2,6-difluorophenyl)-9,9-dimethyl-5,6,7,8-tetrahydro-5,8-methanocinnolin-8-yl)oxy)-N-methylpyrazine-2-carboxamide] | 385
CC1(C)[C@H]2CC[C@]1(Oc1ncccn1)c1nnc(-c3c(F)cccc3F)cc12 [Compound 14, (5S,8R)-3-(2,6-difluorophenyl)-9,9-dimethyl-8-(pyrimidin-2-yloxy)-5,6,7,8-tetrahydro-5,8-methanocinnoline] | 84
CCOC(=O)c1cn2c([C@@]34CC[C@@H](c5cc(-c6c(F)cccc6F)nnc53)C4(C)C)cccc2n1 [Compound 108, ethyl 5-((5R,8S)-3-(2,6-difluorophenyl)-9,9-dimethyl-5,6,7,8-tetrahydro-5,8-methanocinnolin-8-yl)imidazo[1,2-a]pyridine-2-carboxylate] | 96

Further lines, results first:

IC50 [nM] | SMILES
119 | CC(=O)N1CCO[C@@H]([C@@]23CC[C@@H](c4cc(-c5c(F)cccc5F)nnc42)C3(C)C)C1 [Compound 72, 1-((S)-2-((5R,8R)-3-(2,6-difluorophenyl)-9,9-dimethyl-5,6,7,8-tetrahydro-5,8-methanocinnolin-8-yl)morpholino)ethanone]
18 | Cc1coc(N2CCO[C@@H]([C@@]34CC[C@@H](c5cc(-c6c(F)cccc6F)nnc53)C4(C)C)C2)n1 [Compound 145, 2-[5-(2,6-difluorophenyl)-11,11-dimethyl-3,4-diazatricyclo[6.2.1.02,7]undeca-2,4,6-trien-1-yl]-4-(4-methyloxazol-2-yl)morpholine]
420 | CC(C)(C)OC(=O)N1CCN[C@H]([C@@]23CC[C@@H](c4cc(-c5c(F)cccc5F)nnc42)C3(C)C)C1 (single isomer, unassigned) [Compound 114, tert-butyl 3-[5-(2,6-difluorophenyl)-11,11-dimethyl-3,4-diazatricyclo[6.2.1.02,7]undeca-2,4,6-trien-1-yl]piperazine-1-carboxylate]
353 | CC1(C)[C@H]2CC[C@]1(OC(=O)N1CCC1)c1nnc(-c3c(F)cccc3F)cc12 [Compound 10, (5S,8R)-3-(2,6-difluorophenyl)-9,9-dimethyl-5,6,7,8-tetrahydro-5,8-methanocinnolin-8-yl azetidine-1-carboxylate]
6.2 | CC1(C)[C@H]2CC[C@]1([C@H]1CCCN(C(=O)c3ccon3)C1)c1nnc(-c3c(F)cccc3F)cc12 [Compound 131, [3-[5-(2,6-difluorophenyl)-11,11-dimethyl-3,4-diazatricyclo[6.2.1.02,7]undeca-2,4,6-trien-1-yl]-1-piperidyl]-isoxazol-3-yl-methanone]
74 | CC1(C)[C@H]2CC[C@]1([C@H]1CCCN(C(=O)c3ccc(=O)[nH]n3)C1)c1nnc(-c3c(F)cccc3F)cc12 [Compound 125, 3-[3-[5-(2,6-difluorophenyl)-11,11-dimethyl-3,4-diazatricyclo[6.2.1.02,7]undeca-2,4,6-trien-1-yl]piperidine-1-carbonyl]-1H-pyridazin-6-one]
458 | CC1(C)[C@H]2CC[C@]1([C@@H]1CNCCO1)c1nnc(-c3c(F)cccc3F)cc12 [Compound 66, (R)-2-((5R,8R)-3-(2,6-difluorophenyl)-9,9-dimethyl-5,6,7,8-tetrahydro-5,8-methanocinnolin-8-yl)morpholine]
430 | CCOC(=O)c1coc(N2CCO[C@H]([C@@]34CC[C@@H](c5cc(-c6c(F)cccc6F)nnc53)C4(C)C)C2)n1 [Compound 126, ethyl 2-[2[5-(2,6-difluorophenyl)-11,11-dimethyl-3,4-diazatricyclo[6.2.1.02,7]undeca-2,4,6-trien-1-yl]morpholin-4-yl]oxazole-4-carboxylate]
69.8 | COC(=O)N1CCO[C@H]([C@@]23CC[C@@H](c4cc(-c5c(F)cccc5F)nnc42)C3(C)C)C1 [Compound 85, (R)-methyl 2-((5R,8R)-3-(2,6-difluorophenyl)-9,9-dimethyl-5,6,7,8-tetrahydro-5,8-methanocinnolin-8-yl)morpholine-4-carboxylate]
36.8 | COC(=O)N1CCO[C@@H]([C@@]23CC[C@@H](c4cc(-c5c(F)cccc5F)nnc42)C3(C)C)C1 [Compound 87, (S)-methyl 2-((5R,8R)-3-(2,6-difluorophenyl)-9,9-dimethyl-5,6,7,8-tetrahydro-5,8-methanocinnolin-8-yl)morpholine-4-carboxylate]
16 | Cc1n[nH]c(N2CCO[C@@H]([C@@]34CC[C@@H](c5cc(-c6c(F)cccc6F)nnc53)C4(C)C)C2)n1 (single isomer, unassigned) [Compound 147, 2-[5-(2,6-difluorophenyl)-11,11-dimethyl-3,4-diazatricyclo[6.2.1.02,7]undeca-2,4,6-trien-1-yl]-4-(3-methyl-1H-1,2,4-triazol-5-yl)morpholine]
6.7 | CC1(C)[C@H]2CC[C@]1([C@H]1CCCN(C(=O)c3cc[nH]n3)C1)c1nnc(-c3c(F)cccc3F)cc12 [Compound 135, [3-[5-(2,6-difluorophenyl)-11,11-dimethyl-3,4-diazatricyclo[6.2.1.02,7]undeca-2,4,6-trien-1-yl]-1-piperidyl]-(1H-pyrazol-3-yl)methanone]
132 | CC1(C)[C@H]2CC[C@]1(O[C@H](C(N)=O)C1CC1)c1nnc(-c3c(F)cccc3F)cc12 [Compound 45]
237 | CC1(C)[C@H]2CC[C@]1([C@@H]1CN(C(=O)c3ccc(=O)[nH]n3)CCO1)c1nnc(-c3c(F)cccc3F)cc12 [Compound 89, 6-((R)-2-((5R,8R)-3-(2,6-difluorophenyl)-9,9-dimethyl-5,6,7,8-tetrahydro-5,8-methanocinnolin-8-yl)morpholine-4-carbonyl)pyridazin-3(2H)-one]
191 | Cc1n[nH]c(N2CCO[C@@H]([C@@]34CC[C@@H](c5cc(-c6c(F)cccc6F)nnc53)C4(C)C)C2)n1 [Compound 93, (S)-2-((5R,8R)-3-(2,6-difluorophenyl)-9,9-dimethyl-5,6,7,8-tetrahydro-5,8-methanocinnolin-8-yl)-4-(3-methyl-1H-1,2,4-triazol-5-yl)morpholine]
367 | CC1(C)[C@H]2CC[C@]1([C@H]1CNCCO1)c1nnc(-c3c(F)cccc3F)cc12 [Compound 70, (S)-2-((5R,8R)-3-(2,6-difluorophenyl)-9,9-dimethyl-5,6,7,8-tetrahydro-5,8-methanocinnolin-8-yl)morpholine]
14.4 | C[C@@H](O[C@@]12CC[C@@H](c3cc(-c4c(F)cccc4F)nnc31)C2(C)C)C(N)=O [Compound 42, (R)-2-(((5S,8R)-3-(2,6-difluorophenyl)-9,9-dimethyl-5,6,7,8-tetrahydro-5,8-methanocinnolin-8-yl)oxy)propanamide]
